From patent publication US20240207258A1, “HETEROCYCLIC PDK1 INHIBITORS FOR USE TO TREAT CANCER” (Viracta Therapeutics, Inc., priority 2015, published 2024)
pEC50: −log10 of the molar value.

Assays:
[1] = target: T1, Full-length phosphorylated PDK1 (Homo sapiens, UniProt O15530); experiment: Fluorescence polarization PIF-tide binding assay; conditions: PDK1 saturating amounts of compound, FIG. 13C
T1 sequence (O15530 1-556): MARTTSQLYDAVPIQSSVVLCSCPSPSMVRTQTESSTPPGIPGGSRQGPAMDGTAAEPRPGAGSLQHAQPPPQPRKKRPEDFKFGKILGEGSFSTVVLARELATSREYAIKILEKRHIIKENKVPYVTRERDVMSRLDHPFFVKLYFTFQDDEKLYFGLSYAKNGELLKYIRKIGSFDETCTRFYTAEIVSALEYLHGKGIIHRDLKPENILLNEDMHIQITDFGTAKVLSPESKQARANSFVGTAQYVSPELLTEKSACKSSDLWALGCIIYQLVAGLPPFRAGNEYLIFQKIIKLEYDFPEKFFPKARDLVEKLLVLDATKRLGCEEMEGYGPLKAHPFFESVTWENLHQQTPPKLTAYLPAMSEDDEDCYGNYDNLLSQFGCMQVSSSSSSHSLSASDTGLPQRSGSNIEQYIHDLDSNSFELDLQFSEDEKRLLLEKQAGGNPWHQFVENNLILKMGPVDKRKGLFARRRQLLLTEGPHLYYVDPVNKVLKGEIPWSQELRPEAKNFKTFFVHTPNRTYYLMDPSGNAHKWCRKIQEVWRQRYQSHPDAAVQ

JJN3 = experiment: MTS cell proliferation assay, JJN3; format: cell-based; conditions: Homo sapiens, JJN-3; JJN3, 72 hr
Experimental: (§1) Cell proliferation was measured using the CellTiter 96 Aqueous Non-Radioactive Cell Proliferation Assay (Promega). The CellTiter 96® AQueous Assay is composed of solutions of a tetrazolium compound [3-(4,5-dimethylthiazol-2-yl)-5-(3-carboxymethoxyphenyl)-2-(4-sulfophenyl)-2H-tetrazolium, inner salt; MTS] and an electron coupling reagent (phenazine methosulfate) PMS. MTS is bioreduced by cells into a formazan product that is soluble in tissue culture medium. The absorbance of the formazan product at 490 nm can be measured directly from assay plates without additional processing. The quantity of formazan product as measured by the amount of 490 nm absorbance is directly proportional to the number of living cells in culture. Cells were seeded into 96-well or 384-well clear plates in a volume of 200 μL (96-well) or 50 μL (384-well) at optimized densities ranging from 1,000 to 40,000 cells per well for 96-well plates or 1,200 to 25,000 cells per well for 384-well plates depending on cell-line. After 4-6 hr recovery, serially diluted compounds in DMSO were added to the cells using (0.1% v/v final DMSO concentration). Cells were then grown at 37° C. in a humidified incubator with 5% CO2 for 72 hr. A 20:1 [3-(4,5-dimethylthiazol-2-yl)-5-(3-carboxymethoxyphenyl)-2-(4-sulfophenyl)-2H-tetrazolium](MTS):phenazine methosulfate (PMS) solution in DPBS was made immediately before use, added to each well, and cells were incubated for 1.5 hr at 37° C. The absorbance at 490 nm was then measured using a platereader. Absorbance values were normalized as percent of control (cells incubated in the presence of 0.1% v/v DMSO). Sigmoidal dose-response curves were plotted using log(inhibitor) vs. response—Variable slope (four parameters) model with a top value constrained to 100% (GraphPad Prism version 6.00 for Windows, GraphPad Software, La Jolla California USA). […] Curves for compounds that reached a plateau were matched exactly to the measurement points. […]

Mec-1 = experiment: MTS cell proliferation assay, Mec-1; format: cell-based; conditions: Homo sapiens, MEC1; Mec-1, 72 hr
Experimental: as §1

MOLM-16 = experiment: MTS cell proliferation assay, MOLM-16; format: cell-based; conditions: Homo sapiens, MOLM16; MOLM-16, 72 hr
Experimental: as §1

Jeko = experiment: MTS cell proliferation assay, Jeko; format: cell-based; conditions: Homo sapiens, 72 hr
Experimental: (§2) Cell proliferation was measured using the CellTiter 96 Aqueous Non-Radioactive Cell Proliferation Assay (Promega). The CellTiter 96® AQueous Assay is composed of solutions of a tetrazolium compound [3-(4,5-dimethylthiazol-2-yl)-5-(3-carboxymethoxyphenyl)-2-(4-sulfophenyl)-2H-tetrazolium, inner salt; MTS] and an electron coupling reagent (phenazine methosulfate) PMS. MTS is bioreduced by cells into a formazan product that is soluble in tissue culture medium. The absorbance of the formazan product at 490 nm can be measured directly from assay plates without additional processing. The quantity of formazan product as measured by the amount of 490 nm absorbance is directly proportional to the number of living cells in culture. Cells were seeded into 96-well or 384-well clear plates in a volume of 200 μL (96-well) or 50 μL (384-well) at optimized densities ranging from 1,000 to 40,000 cells per well for 96-well plates or 1,200 to 25,000 cells per well for 384-well plates depending on cell-line. After 4-6 hr recovery, serially diluted compounds in DMSO were added to the cells using (0.1% v/v final DMSO concentration). Cells were then grown at 37° C. in a humidified incubator with 5% CO2 for 72 hr. A 20:1 [3-(4,5-dimethylthiazol-2-yl)-5-(3-carboxymethoxyphenyl)-2-(4-sulfophenyl)-2H-tetrazolium](MTS):phenazine methosulfate (PMS) solution in DPBS was made immediately before use, added to each well, and cells were incubated for 1.5 hr at 37° C. The absorbance at 490 nm was then measured using a platereader. Absorbance values were normalized as percent of control (cells incubated in the presence of 0.1% v/v DMSO). Sigmoidal dose-response curves were plotted using log(inhibitor) vs. response—Variable slope (four parameters) model with a top value constrained to 100% (GraphPad Prism version 6.00 for Windows, GraphPad Software, La Jolla California USA). […] Curves for compounds that reached a plateau were matched exactly to the measurement points. […] To determine potential of compounds of the invention to affect viability of hematological cancers, cell lines representing various tumor types were selected and tested. Human cell lines tested were: MOLM-13 (acute myeloid leukemia (AML)), MV4-11 (AML), U-2932 (ABC-diffuse large B cell lymphoma), U-937 (histiocytic lymphoma), U-266 (multiple myeloma), RPMI-8226 (multiple myeloma), CMK (megakaryoblastic cell line), SU-DHL-4 (GCB-diffuse large B cell lymphoma), KG1 (AML), Mec-1 (chronic B-cell leukemia), MOLM-16 (AML), Jeko (B-cell lymphoma), WSU-DLCL2 (B-cell lymphoma), JJN3 (plasma cell leukemia), SU-DHL-6 (GCB-diffuse large B cell lymphoma), and Z-138 (mantle cell lymphoma). In addition, two murine cell lines were tested: A20 […].

Z-138 = experiment: MTS cell proliferation assay, Z-138; format: cell-based; conditions: Homo sapiens; Z-138, 72 hr
Experimental: as §1

U-937 = experiment: MTS cell proliferation assay, U-937; format: cell-based; conditions: Homo sapiens; U-937, 72 hr
Experimental: as §1

CMK = experiment: MTS cell proliferation assay, CMK; format: cell-based; conditions: Homo sapiens, 72 hr
Experimental: as §1

RPMI-8226 = experiment: MTS cell proliferation assay, RPMI-8226; format: cell-based; conditions: Homo sapiens; RPMI-8226, 72 hr
Experimental: as §2

KG1 = experiment: MTS cell proliferation assay, KG1; format: cell-based; conditions: Homo sapiens, KG-1; KG1, 72 hr
Experimental: as §1

MV4-11 = experiment: MTS cell proliferation assay, MV4-11; format: cell-based, human; conditions: Homo sapiens; MV4-11, 72 hr; read-out: MTS proliferation assay
Experimental: Cell proliferation was measured using the CellTiter 96 Aqueous Non-Radioactive Cell Proliferation Assay (Promega). […] MTS is bioreduced by cells into a formazan product that is soluble in tissue culture medium. The absorbance of the formazan product at 490 nm can be measured directly from assay plates without additional processing. The quantity of formazan product as measured by the amount of 490 nm absorbance is directly proportional to the number of living cells in culture. Cells were seeded into 96-well or 384-well clear plates in a volume of 200 μL (96-well) or 50 μL (384-well) at optimized densities ranging from 1,000 to 40,000 cells per well for 96-well plates or 1,200 to 25,000 cells per well for 384-well plates depending on cell-line. After 4-6 hr recovery, serially diluted compounds in DMSO were added to the cells using (0.1% v/v final DMSO concentration). Cells were then grown at 37° C. in a humidified incubator with 5% CO2 for 72 hr. A 20:1 [3-(4,5-dimethylthiazol-2-yl)-5-(3-carboxymethoxyphenyl)-2-(4-sulfophenyl)-2H-tetrazolium](MTS):phenazine methosulfate (PMS) solution in DPBS was made immediately before use, added to each well, and cells were incubated for 1.5 hr at 37° C. The absorbance at 490 nm was then measured using a platereader. Absorbance values were normalized as percent of control (cells incubated in the presence of 0.1% v/v DMSO). Sigmoidal dose-response curves were plotted using log(inhibitor) vs. response—Variable slope (four parameters) model with a top value constrained to 100% (GraphPad Prism version 6.00 for Windows, GraphPad Software, La Jolla California USA). […] To determine potential of compounds of the invention to affect viability of hematological cancers, cell lines representing various tumor types were selected and tested. […] In addition, two murine cell lines were tested: A20 […].

WSU-DLCL2 = experiment: MTS cell proliferation assay, WSU-DLCL2; format: cell-based; conditions: Homo sapiens, WSUDLCL2; WSU-DLCL2, 72 hr
Experimental: as §1

SU-DHL-4 = experiment: MTS cell proliferation assay, SU-DHL-4; format: cell-based; conditions: Homo sapiens; SU-DHL-4, 72 hr
Experimental: as §1

[2] = test system: hematologic tumor cell lines; experiment: MTS cell proliferation assay, panel of hematologic cancer cell lines; format: cell-based; conditions: range against the various cell lines of Table 1; read-out: inhibition of cell proliferation EC50
Experimental: as §2

U-266 = experiment: MTS cell proliferation assay, U-266; format: cell-based; conditions: Homo sapiens; U-266, 72 hr
Experimental: as §1

SU-DHL-6 = experiment: MTS cell proliferation assay, SU-DHL-6; format: cell-based; conditions: Homo sapiens; SU-DHL-6, 72 hr
Experimental: as §1

U-2932 = experiment: MTS cell proliferation assay, U-2932; format: cell-based; conditions: Homo sapiens, U2932; U-2932, 72 hr
Experimental: as §2

Molm-13 = experiment: MTS cell proliferation assay, Molm-13; format: cell-based; conditions: Homo sapiens; Molm-13, 72 hr
Experimental: as §2

| SMILES | PIF-tide binding to PDK1 (fluorescence polarization, words) [1] | pEC50 (JJN3) | pEC50 (Mec-1) | pEC50 (MOLM-16) | pEC50 (Jeko) | pEC50 (Z-138) | pEC50 (U-937) | pEC50 (CMK) | pEC50 (RPMI-8226) | pEC50 (KG1) | pEC50 (MV4-11) | pEC50 (WSU-DLCL2) | pEC50 (SU-DHL-4) | pEC50 [2] | pEC50 (U-266) | pEC50 (SU-DHL-6) | pEC50 (U-2932) | pEC50 (Molm-13) |
| --- | --- | --- | --- | --- | --- | --- | --- | --- | --- | --- | --- | --- | --- | --- | --- | --- | --- | --- |
| O=C(NCCCNc1nc(Nc2cccc(NC(=O)N3CCCC3)c2)ncc1I)c1cccs1 [BX-795, reference compound] | no interference with PIF-tide binding | – | – | – | – | – | – | – | – | – | – | – | – | – | – | – | – | – |
| C[C@H](NC(=O)c1nc(C#N)cnc1NCc1ccc(-c2cnc3[nH]nc(N)c3c2)cc1)c1ccc(F)c(F)c1 [Compound 3, 3-[4-(3-Amino-1H-pyrazolo[3,4-b]pyridin-5-yl)-benzylamino]-6-cyano-pyrazine-2-carboxylic acid [1-(3,4-difluoro-phenyl)-ethyl]-amide] | significant inhibition of PIF-tide binding | 6.07 | 6.39 | 6.54 | 6.60 | 6.12 | 6.95 | 6.56 | 6.70 | 6.71 | 7.92 | 6.32 | 6.39 | 6.07 to 8.52 | 6.84 | 6.34 | 6.94 | 8.30 |
